In patent publication US6608086B2, “Dihydropyridines and new uses thereof” (Synaptic Pharmaceutical Corporation, priority 1993, dated 2003):
Where a name gives a salt, the structure may show the parent alone. Read-outs that look alike come from different tables or passages of the source.

Assays:
L-type calcium channel = molecular target: T1, L-type calcium channel (Rattus norvegicus, UniProt P22002); assay: Competition binding of [3H]nitrendipine to membrane fragments of rat cardiac muscle
T1 construct: membrane fragments of rat cardiac muscle; from tissue; host or cells: rat cardiac muscle membranes

human prostatic tissue = assay: In vitro human prostate model: block of phenylephrine-induced contraction of human prostatic tissue; assay type: cell-based; settings: block of phenylephrine-induced contraction of human prostate
Excerpt: The protocol for these experiments is given below.
Functional Properties of α1 Antagonists in the Human Prostate
The efficacy of α1 adrenergic antagonists for the treatment of benign prostatic hyperplasia (BPH) is related to their ability to elicit relaxation of prostate smooth muscle. An index of this efficacy can be obtained by determining the potency of al antagonists to antagonize the contraction of human prostatic tissue induced by an α1 agonist “in vitro”. Furthermore, by comparing the potency of subtype selective α1 antagonists in binding assays using human α1 receptors with their potency to inhibit agonist-induced smooth muscle contraction, it is possible to determine which of the α1 adrenergic receptor subtypes is involved in the contraction of prostate smooth muscle.
Prostatic adenomas were obtained at the time of surgery from patients with symptomatic BPH. […] The baths were maintained at 37° C. and continuously oxygenated with 5% CO2 and 95% O2. Isometric tension was measured with a Grass Instrument FT03 force transducer interfaced with a computer. Tissue strips were contracted with varying concentrations of phenylephrine after incubating for 20 minutes in the absence and presence of at least three different concentrations of antagonist. Dose-response curves for phenylephrine were constructed, and the antagonist potency (pA2) was estimated by the dose-ratio method. The concentration of some antagonists in the tissue bath was assessed by measuring the displacement of [3H]prazosin by aliquots of the bath medium, using membrane preparations of the cloned human α1C receptor. This control was necessary to account for losses of antagonist due to adsorption to the tissue bath and/or metabolism during the time the antagonists were equilibrated with the prostate tissue.

canine prostate = assay: In vivo dog prostate model: inhibition of phenylephrine-induced increase in urethral pressure in anesthetized dogs; settings: inhibition of phenylephrine-induced increases in urethral pressure, anesthetized dogs
Method: Protocol for In Vivo Evaluation of Compounds in Canine Prostate
Adult male mongrel dogs more than one year of age were chosen for the model. After induction of general anesthesia using sodium pentobarbital (25 mg/Kg i.v.), the animals were intubated and allowed to breathe spontaneously. An arterial catheter was inserted via the femoral artery to monitor blood pressure and i.v. line was inserted into the leg for fluid and drug administration. A constant saline infusion was maintained at 40 to 50 mL/h. Next, a seven cm lower abdominal incision was made one cm lateral to the penis.
The bladder, prostate and a short segment of urethra were identified and isolated, without damage to the nerves or blood vessels. A cystotomy incision was made through which the pressure catheter was inserted and positioned in the prostatic urethra. The cystotomy was not closed, but the wound edges were sutured to stop bleeding. The tip of the catheter was positioned just distal to the prostate and secured in place with an O-silk tie around the urethra. A second holding suture at the bladder neck secured the catheter in place.
Fluid, either water or saline, was pumped by a Harvard infusion pump at 0.1 mL/min through a Gould pressure transducer into the catheter. The fluid exists at a port in the catheter which is in the prostatic urethra. Occlusion of the port, by contraction of the prostate, blocks the flow and a pressure wave is created. This pressure is transmitted back through the catheter to the transducer which is attached to a Gould recorder. Squeezing the prostate gland caused an increase in urethral pressure which verified the correct position in the urethra.
The compounds were tested as follows: A dose response curve was first generated for phenylephrine alone, in doses ranging from one μg/Kg to 50 μg/Kg. The absolute rise in urethral pressure was recorded for each dose and the next dose given when the urethral pressure returned to baseline. Phenylephrine dose response curves were generated in all animals tested. Increasing doses of compounds were then given, and the phenylephrine dose response curve repeated in the prepense of each dose of the compound. No animal received more than one compound; four animals were used to test each compound. To test for tachyphylaxis, four separate dogs were challenged with repeated phenylephrine doses for six hrs, the usual length of each experiment. From the dose-effect data, the inhibition constant (Ki) and the median-effect dose (ED50) were calculated. Both the Ki and ED50 values given are calculated by using microcomputer software and an IBM-PC.

[1] = [3H]nitrendipine, rat cardiac muscle membrane fragments, L-type calcium channel, read-out: pKi Ca (converted)

T1 sequence (P22002 whole entry, other chains not shown, the tested form may be a part): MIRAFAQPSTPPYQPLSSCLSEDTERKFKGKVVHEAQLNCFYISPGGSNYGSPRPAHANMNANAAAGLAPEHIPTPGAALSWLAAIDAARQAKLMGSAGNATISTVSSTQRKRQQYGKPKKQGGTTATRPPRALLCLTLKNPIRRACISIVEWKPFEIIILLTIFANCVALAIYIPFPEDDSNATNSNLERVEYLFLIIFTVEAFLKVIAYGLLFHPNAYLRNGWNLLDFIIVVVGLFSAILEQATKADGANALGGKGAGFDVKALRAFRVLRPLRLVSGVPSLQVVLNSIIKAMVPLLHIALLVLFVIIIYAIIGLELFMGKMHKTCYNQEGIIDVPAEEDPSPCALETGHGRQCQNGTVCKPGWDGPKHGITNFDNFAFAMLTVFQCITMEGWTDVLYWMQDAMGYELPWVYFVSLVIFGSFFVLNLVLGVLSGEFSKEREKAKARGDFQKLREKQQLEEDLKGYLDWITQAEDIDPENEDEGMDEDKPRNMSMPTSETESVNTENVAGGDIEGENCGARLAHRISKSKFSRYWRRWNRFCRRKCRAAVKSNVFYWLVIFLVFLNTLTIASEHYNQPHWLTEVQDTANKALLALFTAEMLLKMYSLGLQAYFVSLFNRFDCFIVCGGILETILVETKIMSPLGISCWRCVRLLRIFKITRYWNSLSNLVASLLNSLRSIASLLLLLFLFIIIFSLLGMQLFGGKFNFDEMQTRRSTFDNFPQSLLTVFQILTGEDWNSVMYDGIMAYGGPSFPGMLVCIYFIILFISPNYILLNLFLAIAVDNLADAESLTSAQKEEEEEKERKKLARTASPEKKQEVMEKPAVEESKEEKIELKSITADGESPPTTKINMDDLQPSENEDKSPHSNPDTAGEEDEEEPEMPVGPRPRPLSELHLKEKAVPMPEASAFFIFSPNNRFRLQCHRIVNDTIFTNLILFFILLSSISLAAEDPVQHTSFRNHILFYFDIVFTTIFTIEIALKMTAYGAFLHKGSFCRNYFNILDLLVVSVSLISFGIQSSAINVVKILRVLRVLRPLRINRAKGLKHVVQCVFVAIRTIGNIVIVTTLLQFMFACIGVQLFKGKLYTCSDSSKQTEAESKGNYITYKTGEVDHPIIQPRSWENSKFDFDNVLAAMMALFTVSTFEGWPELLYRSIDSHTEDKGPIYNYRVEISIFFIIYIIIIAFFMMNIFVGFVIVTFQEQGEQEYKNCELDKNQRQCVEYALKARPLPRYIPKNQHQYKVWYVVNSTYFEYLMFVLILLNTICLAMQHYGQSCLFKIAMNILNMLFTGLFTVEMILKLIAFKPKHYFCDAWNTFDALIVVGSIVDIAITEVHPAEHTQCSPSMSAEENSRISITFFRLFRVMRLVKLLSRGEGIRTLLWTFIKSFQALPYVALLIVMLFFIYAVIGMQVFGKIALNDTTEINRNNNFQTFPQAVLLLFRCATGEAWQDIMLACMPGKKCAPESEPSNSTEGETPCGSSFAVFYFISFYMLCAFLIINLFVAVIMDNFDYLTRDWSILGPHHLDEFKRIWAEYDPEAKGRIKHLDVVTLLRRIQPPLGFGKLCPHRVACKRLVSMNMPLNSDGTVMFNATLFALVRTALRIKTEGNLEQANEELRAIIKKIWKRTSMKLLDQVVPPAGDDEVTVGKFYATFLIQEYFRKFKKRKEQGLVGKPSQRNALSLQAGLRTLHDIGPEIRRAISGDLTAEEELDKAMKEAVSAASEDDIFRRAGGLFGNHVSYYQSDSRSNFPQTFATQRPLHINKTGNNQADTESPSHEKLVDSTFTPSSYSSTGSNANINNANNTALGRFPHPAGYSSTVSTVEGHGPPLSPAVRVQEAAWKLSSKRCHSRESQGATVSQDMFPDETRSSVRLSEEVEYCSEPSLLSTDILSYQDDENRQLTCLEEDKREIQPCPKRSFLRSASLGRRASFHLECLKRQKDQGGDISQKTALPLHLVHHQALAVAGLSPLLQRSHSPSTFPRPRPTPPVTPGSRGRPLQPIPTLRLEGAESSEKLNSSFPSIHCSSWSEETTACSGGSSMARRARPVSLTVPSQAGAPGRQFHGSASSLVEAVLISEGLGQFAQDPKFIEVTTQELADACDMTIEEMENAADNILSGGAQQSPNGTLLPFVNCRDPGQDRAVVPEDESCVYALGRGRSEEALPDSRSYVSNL
T1 sequence (P54290 25-944 partner limits assumed, other chains not shown): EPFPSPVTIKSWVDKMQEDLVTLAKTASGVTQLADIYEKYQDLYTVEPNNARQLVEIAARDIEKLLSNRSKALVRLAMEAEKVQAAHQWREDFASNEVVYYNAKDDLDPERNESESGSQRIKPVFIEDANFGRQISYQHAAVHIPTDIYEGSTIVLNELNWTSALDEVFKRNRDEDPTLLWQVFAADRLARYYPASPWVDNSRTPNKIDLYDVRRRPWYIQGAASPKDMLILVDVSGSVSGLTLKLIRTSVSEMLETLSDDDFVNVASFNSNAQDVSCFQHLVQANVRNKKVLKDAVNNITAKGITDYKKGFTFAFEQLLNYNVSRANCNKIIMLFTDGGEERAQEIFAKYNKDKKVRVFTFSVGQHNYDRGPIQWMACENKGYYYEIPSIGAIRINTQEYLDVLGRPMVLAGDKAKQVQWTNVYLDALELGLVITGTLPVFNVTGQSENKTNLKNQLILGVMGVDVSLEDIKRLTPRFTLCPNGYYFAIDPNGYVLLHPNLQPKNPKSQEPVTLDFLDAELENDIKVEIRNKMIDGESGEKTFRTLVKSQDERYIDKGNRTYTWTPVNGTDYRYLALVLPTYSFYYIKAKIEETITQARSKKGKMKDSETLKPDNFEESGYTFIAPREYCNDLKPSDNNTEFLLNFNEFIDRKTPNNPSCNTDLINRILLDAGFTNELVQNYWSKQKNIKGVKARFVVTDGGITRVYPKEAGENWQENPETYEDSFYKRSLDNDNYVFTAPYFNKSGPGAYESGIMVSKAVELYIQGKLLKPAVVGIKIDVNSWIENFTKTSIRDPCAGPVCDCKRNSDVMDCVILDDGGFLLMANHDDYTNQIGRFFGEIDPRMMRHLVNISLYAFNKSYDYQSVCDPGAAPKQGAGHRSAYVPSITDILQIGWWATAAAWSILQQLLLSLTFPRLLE
T1 sequence (P54290 945-1091 partner limits assumed, other chains not shown): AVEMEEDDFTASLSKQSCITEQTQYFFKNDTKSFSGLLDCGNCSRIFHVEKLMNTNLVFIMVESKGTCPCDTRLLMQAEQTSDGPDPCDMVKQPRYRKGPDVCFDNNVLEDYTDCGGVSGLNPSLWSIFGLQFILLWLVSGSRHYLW

Row | SMILES | Ki (L-type calcium channel; [1]) [µM] | pA2 (human prostatic tissue) | Urethral Pressure K i (canine prostate) [nmol/kg] | melting point [°C] | Ki (L-type calcium channel; pKi Ca) [µM] | Ki (L-type calcium channel; [3H]nitrendipine, rat cardiac muscle membranes, SEM and n in lines below, read-out: pKi Ca (converted)) [µM]
1 | CCC1=C(C(N)=O)C(c2ccc([N+](=O)[O-])cc2)C(C(=O)NCCCN2CCC(C#N)(c3ccccc3)CC2)=C(CC)N1 (single isomer, unassigned; (+)) [(+)-102] | 1000 | 10.43 ± 0.14 | – | – | – | –
2 | CCC1=C(C(N)=O)C(c2ccc([N+](=O)[O-])cc2)C(C(=O)NCCCN2CCC(c3ccccc3)(c3ccccc3)CC2)=C(CC)N1 (stereo not drawn) [Example 42, 5-carboxamido-2,6-diethyl-1,4-dihydro-4-(4-nitrophenyl)-3-{N-[3-(4,4-diphenylpiperidin-1-yl)propyl]}carboxamidopyridine] | – | 8.92 ± 0.08 | 9 ± 2.5 | 119 to 123 | – | –
3 | CCC1=C(C(=O)NCCCN2CCC(c3ccccc3)(c3ccccc3)CC2)C(c2ccc([N+](=O)[O-])cc2)C(C(=O)OC)=C(C)N1 (stereo not drawn) [Example 73, 2-Ethyl-1,4-dihydro-5-methoxycarbonyl-6-methyl-4-(4-nitro) phenyl-3-(N-(3-(4,4-diphenylpiperidin-1-yl)propyl))carboxamidopyridine] | – | 8.56 ± 0.07 | – | – | 0.759 | –
4 | CCC1=C(C(=O)NCCCN2CCC(c3ccccc3)(c3ccccc3)CC2)C(c2ccc([N+](=O)[O-])cc2)C(C(N)=O)=C(C)N1 (stereo not drawn) [Example 81, 5-carboxamido-2-ethyl-1,4-dihydro-6-methyl-4-(4-nitro)phenyl-3-(N-(3-(4,4-diphenylpiperidin-1-yl)propyl))carboxamidopyridine hydrochloride] | – | 8.60 ± 0.03 | – | – | – | 32.4
5 | CCC1=C(C(=O)NC)C(c2ccc([N+](=O)[O-])cc2)C(C(=O)NCCCN2CCC(c3ccccc3)(c3ccccc3)CC2)=C(CC)N1 (stereo not drawn) [Example 128, 2,6-Diethyl-1,4-dihydro-5-(N-methyl)carboxamido-4-(4-nitrophenyl)-3-{N-[3-(4,4-diphenylpiperidin-1-yl)propyl]}carboxamidopyridine] | – | 8.21 ± 0.06 | – | 123 to 126 | – | –
6 | CC1=C(C(=O)NCCCN2CCC(c3ccccc3)(c3ccccc3)CC2)C(c2ccc([N+](=O)[O-])cc2)C(C(=O)NC(C)C)=C(C)N1 (stereo not drawn) [Example 156, 1,4-Dihydro-3-(N-isopropyl) carboxamido-2,6-dimethyl-4-(4-nitrophenyl)-5-{N-[3-(^414-diphenylpiperidin-1-yl)propyl]}carboxamidopyridine] | 75.9 | – | – | 123 to 125 | – | –
7 | CNC(=O)C1=C(C)NC(C)=C(C(=O)NCCCN2CCC(O)(c3ccccc3)CC2)C1c1ccc([N+](=O)[O-])cc1 (stereo not drawn) [Example 162, 1,4-Dihydro-3-{N-[3-(4-hydroxy-4-phenylpiperidin-1-yl)propyl]}carboxamido-2,6-dimethyl-5-(N-methyl)carboxamido-4-(4-nitrophenyl)pyridine] | 50.1 | – | – | 87 to 91 | – | –
